# From patent publication US9970037B2, “Methods and materials for making simvastatin and related compounds” (The Regents of the University of California, priority 2006, dated 2018)
# Legend:
# LovD = target: T1, LovD (Aspergillus terreus, UniProt Q9Y7D1); parameters: 6xHis (N); made in house; host or cells: E. coli BL21(DE3)/pAW31 (pET28a); settings: Xie et al., 2006; cited from earlier work
# T1 sequence (Q9Y7D1 1-413): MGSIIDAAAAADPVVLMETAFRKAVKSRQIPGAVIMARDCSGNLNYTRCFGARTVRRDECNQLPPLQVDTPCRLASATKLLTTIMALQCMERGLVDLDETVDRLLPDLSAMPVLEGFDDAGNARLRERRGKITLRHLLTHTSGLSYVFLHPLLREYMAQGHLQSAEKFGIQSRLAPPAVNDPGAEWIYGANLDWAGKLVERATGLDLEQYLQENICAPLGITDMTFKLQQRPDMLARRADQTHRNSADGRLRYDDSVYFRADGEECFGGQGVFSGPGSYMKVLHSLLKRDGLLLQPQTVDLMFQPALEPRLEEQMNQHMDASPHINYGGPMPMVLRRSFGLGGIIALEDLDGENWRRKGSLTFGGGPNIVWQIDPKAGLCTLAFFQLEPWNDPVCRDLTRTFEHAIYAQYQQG
# E. coli BL21(DE3)/pAW31 = assay: Whole cell biocatalysis with E. coli overexpressing LovD; format: cell-based, Escherichia coli; settings: 0.5 mM lovastatin (sodium salt form)
# Experimental: The BL21(DE3)/pAW31 overexpression strain was grown in a shake flask (200 mL) to an OD600 of 1.0, at which time 1 mM IPTG, 0.8 mM monacolin J and 4 mM of either benzoyl-SNAC or benzoyl-SMTG were added to the culture. Expression of LovD and bioconversion was performed at 18° C. The culture was extracted and analyzed for the formation of 8-benzoyl-monacolin J. When supplemented with benzoyl-SNAC, 84% conversion of monacolin J was detected within 20 hours post-induction. The product was lactonized and purified by a single silica-gel chromatography step. The NMR spectra confirmed the regioselective benzoylation of the C8 hydroxyl group as the diagnostic H8 multiplet is shifted downfield to δ 5.61.
# Fermentation conditions: 500 mL culture with LB media with 30 mg/L kanamycin. At OD600 of 1.0, cells were concentrated to a final OD600 of 5.0 and induced with 1 mM IPTG. Substrates monacolin J and α-dimethylbutyryl-SNAC were added to a final concentration of 1 mM and 4 mM. At different time points, culture samples were collected, centrifuged, filtered and injected on to HPLC (20 μL). Extraction conditions: When maximum conversion was reached, the broth was acidified to pH of 2.0, extracted with ethyl acetate, dried and redissolved in toluene.
# Whole-cell catalytic synthesis of simvastatin acid from MJ acid and DMB-S-MMP were performed as described (see, e.g., Xie et al., (2007) Appl Environ Microbiol 73: 2054-2060). The E. coli BL21(DE3)/pAW31 and YT2/pAW31 strains were cultured side-by-side for comparison. A single colony of the freshly transformed strains was used to inoculate a 5 mL LB culture supplemented with 35 mg/L kanamycin and grown overnight at 37° C. The next morning, 100 μL of the overnight culture was inoculated into 50 mL cultures containing LB broth, F1 minimal medium and F1 medium supplemented with 0.15 mg/L biotin. Growth rates were monitored by periodically measuring the OD600 reading. When OD600 reached ˜0.5, 100 μM IPTG was added to the culture and expression of LovD was performed at 20° C. for 16 hours. To mimic high density fermentation conditions, the cells were concentrated 10-fold before addition of substrates. Typically, a 14 mL aliquot of the culture was transferred to a 15 mL centrifuge tube and the cells were collected by centrifugation (4° C., 4000 g, 10 minutes). The cell pellet was gently resuspended in 1316 μl of the supernatant, followed by addition of 84 μl of a MJ acid stock solution (250 mM in H2O) (final concentration 15 mM). The concentrated culture was then separated into seven 200 μL samples and 1.2 μL of pure DMB-S-MMP was added to each sample (final concentration ˜25 mM). The culture was then shaken at 300 rpm at room temperature. At each time point, a total extraction was performed by adding 10 μL 20% SDS to lyse the cells, followed by liquid-liquid extraction with 500 μL EA/1% AcOH. The organic phase was removed, evaporated, and redissolved in 50 μL ACN for HPLC analysis. For the BL21(DE3) sample, an additional 1.2 μL aliquot of DMB-S-MMP was added after 12 hours to replenish the hydrolyzed substrates.
# The E. coli BL21(DE3)/pAW31 strain was grown in LB medium at 37° C. to an OD600 of 0.5, at which time 100 μM IPTG was added to the culture and expression was performed at RT for 16 hours. A 10 ml culture was transferred to a 15 mL centrifuge tube. The cells were collected by centrifugation (4000 g, 10 minutes). The cell pellet was resuspended in 957 μl of the supernatant. The pH was adjusted to pH 7.9 with 1.0 N NaOH, followed by addition of 33 μl 450 mM MJ (final concentration 15 mM) and 6 μl pure DMB-S-MMP (final concentration ˜25 mM). The culture was then shaken at 300 rpm at room temperature. At each time point, a 4 μL aliquot was removed from the reaction mixture, quenched in 300 μL ethyl acetate containing 1% TFA.
structure (smiles),measurement,setting,value
"CC[C@H](C)C(=O)O[C@H]1C[C@@H](C)C=C2C=C[C@H](C)[C@H](CC[C@@H]3C[C@@H](O)CC(=O)O3)[C@H]21 [lovastatin, reference compound]",kcat of LovD hydrolysis of lovastatin into monacolin J in vitro (previously reported),LovD,0.0035 s⁻¹
same,conversion rate of whole cell hydrolysis,E. coli BL21(DE3)/pAW31,~0.01 mM per hour
same,hydrolysis to monacolin J by whole cells,E. coli BL21(DE3)/pAW31; 48 hours,91%
